Data from patent publication US20220323406A1, “METHODS AND COMPOSITIONS FOR DIFFERENTIATING STEM CELLS” (Massachusetts Institute of Technology, priority 2019, published 2022).

What was measured:
ENR+CD organoids = assay: Primary screen: ATP (CellTiter-Glo 3D, CTG) cell number/viability, 2.5-D 384-well ENR+CD organoids; conditions: primary screen;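 further: compounds given at plating and again on day 3 over a 6-day differentiation from ENR+CV stem-cell-enriched precursors, ATP measured on day 6, plate median as control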
[1] = test system: ENR+CD organoids (ISC to Paneth cell differentiation); assay: Primary screen: basal (non-stimulated) lysozyme secretion LYZ.NS, 2.5-D 384-well ENR+CD organoid differentiation; format: cell-based, mouse; conditions: primary screen; for Z.LYZ.NS: standard z score
Source text: (§1) High-throughput screening.

[2] = test system: ENR+CD organoids (ISC to Paneth cell differentiation); assay: Primary screen: CCh-stimulated lysozyme secretion LYZ.S, 2.5-D 384-well ENR+CD organoid differentiation; format: cell-based, mouse; conditions: primary screen
Source text: as §1

[3] = dose 0.08 uM, FC relative to plate median
[4] = dose 0.40 uM, FC relative to plate median
[5] = dose 2.00 uM, FC relative to plate median
[6] = dose 10.00 uM, FC relative to plate median

SMILES | Z.CTG (standard z score) (ENR+CD organoids; dose 0.08 uM) | Z.CTG (standard z score) (ENR+CD organoids; dose 0.40 uM) | Z.CTG (standard z score) (ENR+CD organoids; dose 2.00 uM) | Z.CTG (standard z score) (ENR+CD organoids; dose 10.00 uM) | Z.LYZ.NS (standard z score) ([1]; dose 0.08 uM) | Z.LYZ.NS (standard z score) ([1]; dose 0.40 uM) | Z.LYZ.NS (standard z score) ([1]; dose 2.00 uM) | Z.LYZ.NS (standard z score) ([1]; dose 10.00 uM) | Dose.FC.CTG (log2 fold change) (ENR+CD organoids; dose 0.08 uM) | Dose.FC.CTG (log2 fold change) (ENR+CD organoids; dose 0.40 uM) | Dose.FC.CTG (log2 fold change) (ENR+CD organoids; dose 2.00 uM) | Dose.FC.CTG (log2 fold change) (ENR+CD organoids; dose 10.00 uM) | Dose.FC.LYZ.NS (log2 fold change) ([1]; dose 0.08 uM) | Dose.FC.LYZ.NS (log2 fold change) ([1]; dose 0.40 uM) | Dose.FC.LYZ.NS (log2 fold change) ([1]; dose 2.00 uM) | Dose.FC.LYZ.NS (log2 fold change) ([1]; dose 10.00 uM) | Dose.FC.LYZ.S (log2 fold change) ([2]; dose 0.08 uM) | Dose.FC.LYZ.S (log2 fold change) ([2]; dose 0.40 uM) | Dose.FC.LYZ.S (log2 fold change) ([2]; dose 2.00 uM) | Dose.FC.LYZ.S (log2 fold change) ([2]; dose 10.00 uM) | other results
CCCS(=O)(=O)Nc1ccc(F)c(C(=O)c2c[nH]c3ncc(-c4ccc(Cl)cc4)cc23)c1F [Vemurafenib (PLX4032, RG7204)] | 0.297 | −0.195 | −0.014 | 0.073 | 0.786 | 0.462 | 0.411 | 0.263 | – | – | – | – | – | – | – | – | – | – | – | – | Dose.FC.CTG (ENR+CD organoids; dose 0.08 uM): 0.124 log2 fold change; Dose.FC.CTG (ENR+CD organoids; dose 0.40 uM): −0.082 log2 fold change; Dose.FC.CTG (ENR+CD organoids; dose 2.00 uM): −0.006 log2 fold change; Dose.FC.CTG (ENR+CD organoids; dose 10.00 uM): 0.030 log2 fold change; Dose.FC.LYZ.NS ([1]; dose 0.08 uM): 0.090 log2 fold change; Dose.FC.LYZ.NS ([1]; dose 0.40 uM): 0.053 log2 fold change; Dose.FC.LYZ.NS ([1]; dose 2.00 uM): 0.047 log2 fold change; Dose.FC.LYZ.NS ([1]; dose 10.00 uM): 0.030 log2 fold change; Dose.FC.LYZ.S ([2]; dose 0.08 uM): 0.120 log2 fold change; Dose.FC.LYZ.S ([2]; dose 0.40 uM): 0.150 log2 fold change; Dose.FC.LYZ.S ([2]; dose 2.00 uM): 0.055 log2 fold change; Dose.FC.LYZ.S ([2]; dose 10.00 uM): 0.022 log2 fold change
O=C(NC[C@H]1CN(c2ccc(N3CCOCC3=O)cc2)C(=O)O1)c1ccc(Cl)s1 [Rivaroxaban] | – | – | – | – | – | – | – | – | – | – | – | – | – | – | – | – | – | – | – | – | Dose.FC.CTG (ENR+CD organoids; [3]): 0.021 log2 fold change; Dose.FC.CTG (ENR+CD organoids; [4]): 0.195 log2 fold change; Dose.FC.CTG (ENR+CD organoids; [5]): 0.052 log2 fold change; Dose.FC.CTG (ENR+CD organoids; [6]): 0.044 log2 fold change; Dose.FC.LYZ.NS [1, 3]: 0.108 log2 fold change; Z.LYZ.NS ([1]; dose 0.08 uM): 0.941; Dose.FC.LYZ.NS [1, 4]: −0.029 log2 fold change; Z.LYZ.NS ([1]; dose 0.40 uM): −0.248; Dose.FC.LYZ.NS [1, 5]: 0.153 log2 fold change; Z.LYZ.NS ([1]; dose 2.00 uM): 1.336; Dose.FC.LYZ.NS [1, 6]: −0.045 log2 fold change; Z.LYZ.NS ([1]; dose 10.00 uM): −0.390; Dose.FC.LYZ.S [2, 3]: 0.136 log2 fold change; Dose.FC.LYZ.S [2, 4]: −0.027 log2 fold change; Dose.FC.LYZ.S [2, 5]: 0.063 log2 fold change; Dose.FC.LYZ.S [2, 6]: −0.048 log2 fold change
Oc1nc(-c2ccc(C(F)(F)F)cc2)nc2c1CSCC2 [XAV-939] | – | – | – | – | 0.505 | 0.177 | −0.386 | −1.142 | – | – | – | – | – | – | – | – | – | – | – | – | Dose.FC.CTG (ENR+CD organoids; dose 0.08 uM): −0.332 log2 fold change; Dose.FC.CTG (ENR+CD organoids; dose 0.40 uM): −0.027 log2 fold change; Dose.FC.CTG (ENR+CD organoids; dose 2.00 uM): −0.355 log2 fold change; Dose.FC.CTG (ENR+CD organoids; dose 10.00 uM): −0.899 log2 fold change; Dose.FC.LYZ.NS ([1]; dose 0.08 uM): 0.058 log2 fold change; Dose.FC.LYZ.NS ([1]; dose 0.40 uM): 0.020 log2 fold change; Dose.FC.LYZ.NS ([1]; dose 2.00 uM): −0.044 log2 fold change; Dose.FC.LYZ.NS ([1]; dose 10.00 uM): −0.131 log2 fold change; Dose.FC.LYZ.S ([2]; dose 0.08 uM): 0.074 log2 fold change; Dose.FC.LYZ.S ([2]; dose 0.40 uM): 0.085 log2 fold change; Dose.FC.LYZ.S ([2]; dose 2.00 uM): −0.068 log2 fold change; Dose.FC.LYZ.S ([2]; dose 10.00 uM): −0.231 log2 fold change
Cl.Cl.O=S(=O)(NCCNC/C=C/c1ccc(Br)cc1)c1cccc2cnccc12 [H 89 2HCl] | 0.836 | 0.950 | 1.005 | 0.919 | 1.223 | 0.695 | 0.747 | 1.151 | 0.350 | 0.398 | 0.421 | 0.385 | 0.140 | 0.080 | 0.086 | 0.132 | 0.118 | 0.148 | 0.087 | 0.000 | –
CCO[C@@H]1OC(=O)C[C@@H]1NC(=O)[C@@H]1CCCN1C(=O)[C@@H](NC(=O)c1ccc(N)c(Cl)c1)C(C)(C)C [VX-765] | – | – | – | – | 0.371 | 0.317 | 0.516 | 0.190 | – | – | – | – | – | – | – | – | – | – | – | – | Dose.FC.CTG (ENR+CD organoids; dose 0.08 uM): 0.154 log2 fold change; Dose.FC.CTG (ENR+CD organoids; dose 0.40 uM): 0.232 log2 fold change; Dose.FC.CTG (ENR+CD organoids; dose 2.00 uM): 0.165 log2 fold change; Dose.FC.CTG (ENR+CD organoids; dose 10.00 uM): 0.254 log2 fold change; Dose.FC.LYZ.NS ([1]; dose 0.08 uM): 0.043 log2 fold change; Dose.FC.LYZ.NS ([1]; dose 0.40 uM): 0.036 log2 fold change; Dose.FC.LYZ.NS ([1]; dose 2.00 uM): 0.059 log2 fold change; Dose.FC.LYZ.NS ([1]; dose 10.00 uM): 0.022 log2 fold change; Dose.FC.LYZ.S ([2]; dose 0.08 uM): 0.091 log2 fold change; Dose.FC.LYZ.S ([2]; dose 0.40 uM): 0.032 log2 fold change; Dose.FC.LYZ.S ([2]; dose 2.00 uM): 0.061 log2 fold change; Dose.FC.LYZ.S ([2]; dose 10.00 uM): 0.174 log2 fold change
O=C(O)CCc1ccc(NCc2cccc(Oc3ccccc3)c2)cc1 [GW9508] | 0.151 | 0.417 | −0.003 | −0.140 | 0.650 | 0.169 | −0.092 | −0.350 | 0.063 | 0.174 | −0.001 | −0.059 | 0.075 | 0.019 | −0.011 | −0.040 | 0.067 | 0.049 | 0.000 | −0.045 | –
O=C(O)CNC(=O)c1c(O)c2ccccc2n(Cc2ccccc2)c1=O [IOX2] | 0.356 | 0.185 | 0.232 | 0.002 | 0.254 | 0.246 | 0.376 | −0.388 | 0.149 | 0.078 | 0.097 | 0.001 | 0.029 | 0.028 | 0.043 | −0.045 | 0.047 | 0.071 | 0.001 | −0.049 | –
CN(C)CCCCC(=O)Nc1ccc(NC(=S)NC(=O)c2ccc(C(C)(C)C)cc2)cc1 [Tenovin-6] | 0.165 | −1.209 | −2.654 | −3.414 | 1.050 | −0.463 | −1.686 | −1.671 | – | – | – | – | – | – | – | – | – | – | – | – | Dose.FC.CTG (ENR+CD organoids; dose 0.08 uM): 0.069 log2 fold change; Dose.FC.CTG (ENR+CD organoids; dose 0.40 uM): −0.506 log2 fold change; Dose.FC.CTG (ENR+CD organoids; dose 2.00 uM): −1.111 log2 fold change; Dose.FC.CTG (ENR+CD organoids; dose 10.00 uM): −1.429 log2 fold change; Dose.FC.LYZ.NS ([1]; dose 0.08 uM): 0.121 log2 fold change; Dose.FC.LYZ.NS ([1]; dose 0.40 uM): −0.053 log2 fold change; Dose.FC.LYZ.NS ([1]; dose 2.00 uM): −0.194 log2 fold change; Dose.FC.LYZ.NS ([1]; dose 10.00 uM): −0.192 log2 fold change; Dose.FC.LYZ.S ([2]; dose 0.08 uM): 0.028 log2 fold change; Dose.FC.LYZ.S ([2]; dose 0.40 uM): −0.109 log2 fold change; Dose.FC.LYZ.S ([2]; dose 2.00 uM): −0.328 log2 fold change; Dose.FC.LYZ.S ([2]; dose 10.00 uM): −0.344 log2 fold change
C[C@@H](Oc1cc(-n2cnc3ccc(CN4CCN(C)CC4)cc32)sc1C(N)=O)c1ccccc1C(F)(F)F [GSK461364] | 0.383 | −0.368 | −1.500 | −1.484 | 0.682 | −0.834 | −2.138 | −2.498 | 0.160 | −0.154 | −0.628 | −0.621 | 0.078 | −0.096 | −0.246 | −0.287 | 0.112 | −0.093 | −0.352 | −0.390 | –
Cc1ccc(NC(=O)c2ccc(CN3CCN(C)CC3)cc2)cc1Nc1nccc(-c2cccnc2)n1 [Imatinib (STI571)] | −0.357 | 0.188 | 0.135 | −0.082 | 0.284 | 0.104 | 0.217 | −0.333 | −0.150 | 0.079 | 0.056 | −0.034 | 0.033 | 0.012 | 0.025 | −0.038 | 0.000 | 0.038 | −0.001 | −0.037 | –
